Experimental data reported in patent publication US20220324912A1, “THERAPEUTIC PEPTIDES” (COHBAR, INC., priority 2019, published 2022).
Residues, ends and D or L forms follow the SMILES beside them.

Experiments:
[1] = system: 3T3-L1 mouse adipocytes; test: Free Fatty Acid Levels in 3T3-L1 Mouse Adipocytes (Example 12, 10 μM); type: cell-based; details: peptides 10 μM, 20-22 hours then 3 hours with isoproterenol 1 nM, 3T3-L1 mouse adipocytes
Protocol: The effect of the peptides on fatty acid metabolism can be assessed using an assay of free fatty acid levels in cultured cells such as mouse adipocytes. Peptides were initially prepared as 10 mM stock in DMSO, diluted to 1 mM in H2O, and used at a final concentration of 10 μM (0.1% DMSO). […] After 20-22 hours, 1 nM isoproterenol was added to all wells except untreated controls and test peptides were replenished. Insulin at 100 nM was added to control wells. […] Free fatty acid concentrations in the media were determined using a Free Fatty Acid Assay kit (Zen-Bio) according to the manufacturer's instructions using a Cytation 3 plate reader at 540 nm (BioTek, Winooski, Vt.). Absorbance values were corrected for untreated background and expressed relative to isoproterenol treated cells. Treatment with isoproterenol (1 nM) alone was used as the free fatty acid level stimulatory control. The relative standard deviation of the isoproterenol control was <10%. […] Free fatty acid levels for insulin (100 nM) treatment were <5% of the isoproterenol control value.

[2] = system: C2C12 cells; test: Cell Proliferation in C2C12 Cells (Cyquant DNA dye); type: cell-based, mouse; details: peptides 10 μM, 72 hours with readdition every 24 hours, relative to 0.1% DMSO control
Protocol: The effect of the peptides on cell proliferation was assessed using a DNA dye binding assay in cultured cells such as mouse myoblast cells. Peptides were initially prepared as 10 mM stock in DMSO, diluted to 1 mM in H2O, and added at a final concentration of 10 μM (0.1% DMSO). Lovastatin was used as a growth arrest control at final concentration of […]. […] C2C12 cells were grown in DMEM supplemented with 20% FBS with 100 IU/ml penicillin and 100 μg/ml streptomycin. […] C2C12 cells were seeded at 800 cells per well on 96-well plates. […] Cell proliferation was determined using Cyquant Direct Nucleic Acid Stain (Thermo Fisher Scientific, Waltham, Mass.) according to the manufacturer's instructions. Fluorescence for each sample well on the plate was measured using a Cytation 3 plate reader at Ex/Em=495/535 nm (BioTek, Winooski, Vt.). Activity was calculated relative to 0.1% DMSO untreated control. The relative standard deviation for the lovastatin control was <27%. The cell proliferation for the lovastatin control was <25% of the value for untreated control.

[3] = system: C2C12 cells; test: Cellular ROS Levels Induced by TBHP in C2C12 Cells (DCFDA); type: cell-based, mouse; details: peptides 10 μM, 18-20 hours, then TBHP 100 μM 1 hour, relative to TBHP control
Protocol: The protective or synergistic effect of the peptides on cellular levels of reactive oxygen species (ROS) induced by oxidative stress can be assessed using an assay of ROS in cultured cells such as mouse myoblasts exposed to a suitable oxidative stress. Peptides were initially prepared as 10 mM stock in DMSO, diluted to 1 mM in H2O, and added at a final concentration of 10 μM (0.1% DMSO). […] TBHP was used at final concentration of 100 μM. Sulforaphane at final concentration of 10 µM was used as a protective control against TBHP induced ROS production. […] C2C12 cells were grown in DMEM supplemented with 20% FBS with 100 IU/ml penicillin and 100 μg/ml streptomycin. […] C2C12 cells were seeded at 7,500 cells per well on 96-well plates. […] After 18-20 hours of incubation the cells were loaded with DCFDA for 45 min. TBHP at 100 μM was then added to the appropriate wells for 1 hour. ROS activity was determined using a DCFDA Cellular ROS Detection Assay kit (Abcam, Cambridge, Mass.) according to the manufacturer's instructions. Fluorescence in each sample well on the plate was measured using a Cytation 3 plate reader at Ex/Em=485/535 nm (BioTek, Winooski, Vt.). Activity was calculated relative to TBHP control. The relative standard deviation of the sulforaphane control was <20%. The ROS level produced by the sulforaphane control in the presence of TBHP was 52% of the TBHP control.

[4] = system: DIO mice; test: Metabolic parameters in DIO mice, twice daily intraperitoneal, 10 days (Example 16); type: in vivo, mouse; details: 5 mg/kg, male DIO mice
Protocol: Male C57BL/6 mice were maintained on a high fat diet for 18 weeks to develop diet induced obesity. Animals were randomized to treatment groups based on blood glucose levels and body weight. The peptides of the invention were administered to groups of male DIO mice twice daily by intraperitoneal injection at a dose of 5 mg/kg/dose for 10 days (N=8 animals per treatment group). An additional group of male DIO mice (n=8) received vehicle (water) alone administered twice daily by intraperitoneal injection. Body weight, blood glucose levels and food intake were monitored. Body mass distribution (fat vs lean) was determined by quantitative whole body NMR prior to dosing and at the end of dosing.

[5] = system: Caspase 3/7 in MDA-MB-231 cells; test: Caspase 3/7 Activity in MDA-MB-231 Cells (Caspase-Glo 3/7); type: cell-based, human; details: for Caspase 3/7 activity, Percent of Control Activity: peptides 10 μM, 18 hours, relative to DMSO control
Protocol: The effect of the peptides on cell death/survival can be assessed using a caspase-3 assay. Peptides were dissolved with DMSO at 10 mM stock. […] Staurosporine (Selleckchem) was dissolved with DMSO at 1 mM stock. Caspase-Glo 3/7 Assay Reagent was purchased from Promega (Madison, Wis.). MDA-MB-231 human breast cancer cell line was purchased from American Type Culture Collection (Manassas, Va.). MDA-MB-231 cells were grown in DMEM Medium supplemented with 10% FBS. 100 μg/ml penicillin and 100 μg/ml streptomycin were added to the culture medium. Cultures were maintained at 37° C. in a humidified atmosphere of 5% CO2 and 95% air. MDA-MB-231 cells were incubated with test peptides in duplicate at 10 μM at 37° C. in a humidified atmosphere of 5% CO2 and 95% air for 18 hours. 25 μl of Caspase-Glo 3/7 Assay Reagent was added to each well and incubated at 37° C., 5% CO2 for 1 hour. Luminescence for each sample well on the plate was measured by Envision 2104 Multilabel Reader (PerkinElmer, Santa Clara, Calif.). Activity was calculated relative to DMSO control.

[6] = system: MCF-7 cells; details: human, 72 hours, 10 μM
Protocol: Peptides and reference compound staurosporine (Selleckchem) were dissolved with DMSO at 10 mM stock. CellTiter 96® AQueous One Solution Reagent (MTS assay reagent) was purchased from Promega (Madison, Wis.). MCF-7 human breast cancer cell line was purchased from American Type Culture Collection (Manassas, Va.). MCF-7 cells were grown in EMEM Medium supplemented with 10% FBS and 0.01 mg/ml human recombinant insulin. 100 μg/ml penicillin and 100 μg/ml streptomycin were added to the culture medium. Cells were incubated with test peptides at 10 μM at 37° C. in a humidified atmosphere of 5% CO2 and 95% air for 72 hours. 5 μl of CellTiter 96® AQueous One Solution Reagent (MTS assay reagent) was added to each well and incubated at 37° C., 5% CO2 for 5 hours. Absorbance at 492 nm was recorded by Envision 2104 Multilabel Reader. Treatment with DMSO alone was used as the cell viability activity control.

[7] = system: 3T3-L1 adipocytes; test: Free Fatty Acid Levels in 3T3-L1 Adipocytes (Example 4, 25 μM); type: cell-based, mouse; details: peptides 25 μM, 20-22 hours then 3 hours with isoproterenol 1 nM, 3T3-L1 adipocytes
Protocol: Following 12-15 days' differentiation, test peptides were added to a final concentration of 25 μM and incubated for 20-22 hours in Adipocyte Maintenance Medium. After 20-22 hours, isoproterenol (1 nM) was added to all wells except untreated controls and test peptides were replenished. Cells were incubated for a further 3 hours in Assay Buffer (Zen-Bio). Free fatty acid concentrations in the media were determined using a Free Fatty Acid Assay Kit (Zen-Bio) according to the manufacturer's instructions using a plate reader (540 nm). Absorbance values were corrected for untreated background and expressed relative to isoproterenol treated cells. Treatment with isoproterenol (1 nM) alone was used as the free fatty acid level stimulatory control. The relative standard deviation of the isoproterenol control was <10%. […] Free fatty acid levels for insulin (100 nM) treatment were <5% of the isoproterenol control value.

[8] = system: MDA-MB-231 cells; test: Cell viability, MTS Assay in MDA-MB-231 Cells; type: cell-based; details: human, 72 hours
Protocol: Test compounds and reference compound staurosporine (Selleckchem) were all dissolved with DMSO at 10 mM stock. […] Activity was calculated relative to DMSO control. […] Cell viability was 3% of the DMSO control value for Staurosporine (10 uM).

[9] = Stability in Mouse Plasma; type: in vitro ADME; details: pooled mouse plasma, 37° C., peptides 100 DM
Protocol: Peptides (100 DM) were incubated in pooled mouse plasma at 37° C. and samples were removed and immediately analyzed for the concentration of intact peptide by LC/MS/MS over the course of 3 hours. The percent of peptide remaining in plasma at each time point was calculated relative to the initial peak area (Table 9).

With 14 (MRLPGPAILTNPVLGWVWV) [compound 14] the “Free fatty acid levels, Percent of Isoproterenol Control Activity” value [1] was 80.8%, the “Cell proliferation, Percent of Control” value [2] was 93.2% and the “Cellular ROS levels induced by TBHP, Percent of Control” value [3] was 106.0%. The “Difference from Vehicle Control: Decrease from Baseline in Blood Glucose” value [4] was -6.12 mg/dL, the “Difference from Vehicle Control: Decrease from Baseline in Body Weight” value [4] was −2.48% and the “Difference from Vehicle Control: Decrease from Baseline in Fat Mass” value [4] was -0.93 g.
In the case of `CC[C@H](C)[C@H](NC(=O)[C@H](C)NC(=O)[C@H](CCCNC(=N)N)NC(=O)[C@H](C)NC(=O)[C@@H](NC(=O)[C@H](CCCNC(=N)N)NC(=O)[C@H](CCCNC(=N)N)NC(=O)[C@@H](NC(=O)[C@H](C)NC(=O)[C@H](CC(C)C)NC(=O)[C@@H](N)CCSC)C(C)C)[C@@H](C)O)C(=O)NCC(=O)O` [compound 2] (H-MLAVRRTARAIG-OH; N-terminus and C-terminus assumed), the “Caspase 3/7 activity, Percent of Control Activity” value [5] was 71%, the “MTS cell viability, Percent of Control Activity” value (from here on “MTS cell viability, Percent”) [6] was 39% and the “Free fatty acid levels, Percent of Control Value (percent isoproterenol control)” value [7] was 76%. For the same compound, the “MTS cell viability, Percent” value [8] was 78%.
For `CC[C@H](C)[C@H](NC(=O)[C@H](C)NC(=O)[C@H](CO)NC(=O)CNC(=O)[C@@H]1CCCN1C(=O)[C@H](CC(C)C)NC(=O)[C@H](CCCNC(=N)N)NC(=O)[C@@H](N)CCSC)C(=O)N[C@@H](CC(C)C)C(=O)N[C@H](C(=O)N[C@@H](CC(N)=O)C(=O)N1CCC[C@H]1C(=O)N[C@H](C(=O)N[C@@H](CC(C)C)C(=O)NCC(=O)N[C@@H](Cc1c[nH]c2ccccc12)C(=O)N[C@H](C(=O)N[C@@H](Cc1c[nH]c2ccccc12)C(=O)N[C@H](C(=O)O)C(C)C)C(C)C)C(C)C)[C@@H](C)O` [compound 7] (H-MRLPGSAILTNPVLGWVWV-OH), the “MTS cell viability, Percent” value [6] was 64%, the “MTS cell viability, Percent” value [8] was 88% and the “% Remaining at 0 min” value ([9]; 0 min) was 100%. The remaining at 0.25 h, 100 DM ([9]; 15 min) was 70.9%, the remaining at 0.5 h, 100 DM ([9]; 30 min) was 68.2% and the remaining at 1 h, 100 DM ([9]; 60 min) was 52.6%. It also gave a remaining at 2 h, 100 DM ([9]; 120 min) of 31.6% and a remaining at 3 h, 100 DM ([9]; 180 min) of 18.1%.
With `CSCC[C@H](N)C(=O)N[C@H](C(=O)N[C@@H](Cc1ccccc1)C(=O)N[C@@H](CCC(N)=O)C(=O)N[C@@H](CCCCN)C(=O)N[C@H](C(=O)N[C@@H](Cc1c[nH]cn1)C(=O)N[C@@H](CC(N)=O)C(=O)N[C@@H](CC(C)C)C(=O)N[C@@H](CC(N)=O)C(=O)N[C@@H](CCC(N)=O)C(=O)N[C@@H](Cc1c[nH]cn1)C(=O)N[C@@H](CC(N)=O)C(=O)N[C@@H](Cc1c[nH]cn1)C(=O)N1CCC[C@H]1C(=O)N[C@@H](CCC(N)=O)C(=O)N1CCC[C@H]1C(=O)N[C@@H](CC(N)=O)C(=O)N[C@@H](Cc1ccc(O)cc1)C(=O)O)[C@@H](C)O)[C@@H](C)O` [compound 20] (H-MTFQKTHNLNQHNHPQPNY-OH; N-terminus and C-terminus assumed) the “Caspase 3/7 activity, Percent of Control Activity” value [5] was 58%, the “MTS cell viability, Percent” value [6] was 63% and the “Free fatty acid levels, Percent of Control Value (percent isoproterenol control)” value [7] was 71%. For the same compound, the “MTS cell viability, Percent” value [8] was 85%.
For `CN[C@@H]1C[C@H]2O[C@@](C)([C@@H]1OC)n1c3ccccc3c3c4c(c5c6ccccc6n2c5c31)C(=O)NC4` [staurosporine, reference compound], the “Caspase activity, % of background-corrected DMSO control value” ([5]; staurosporine 0.05 nM) was 130%.
